Results taken from patent US11440896B2, “Aminoalkyl compound” (Daiichi Sankyo Company, Limited, priority 2018, dated 2022).

How the values were obtained:
[1] = Hairless mouse skin permeation test; type: in vitro ADME; parameters: unit not given here; conditions: hairless mouse (HR-1) skin, horizontal diffusion cell, 37° C., donor 3.84 mmol/L in IPM, N=3
Description: (§1) The compounds described in the Examples were dissolved or suspended in isopropyl myristate (IPM) at a concentration of 3.84 mmol/L and the resultant was used.
The frozen skin of a hairless mouse (HR-1 strain, male, 7 weeks old, Japan SLC, Inc.) was thawed at room temperature and, if there was excess subcutaneous fat, the fat was excised with scissors. The horizontal diffusion cell was kept at a constant temperature by flowing water from a thermostatic circulation tank (37° C.) into the external jacket of the cell. The hairless mouse skin was punched out to ϕ24 mm and mounted tightly in the horizontal diffusion cell, 0.9 mL of a receiver solution (McIlvaine buffer containing 40% polyethylene glycol 400) was added to the dermal side (receiver side), and 0.9 mL of a donor solution (the solution or suspension of the compound described in the Example in IPM at a concentration of 3.84 mmol/L) was added to the stratum corneum side (donor side). […]
The compounds in liquids collected in the skin permeation test were quantified. […]
Skin permeation rate (flux, mmol/cm2/hr) and Lag time (hr) were calculated from the slope and X-axis intercept, respectively, of the regression line at steady state from the profile, and used as indicators of skin permeation.

[2] = system: mice (C57BL/6JJmsSlc); assay: Analgesic score by Tail Flick test in mice; type: in vivo; conditions: Mus musculus, sc, subcutaneous administration in Captisol, dose with an analgesic score of 50%
Description: A Tail Flick analgesic effect metering device (Ugo Basile) and adult mice (C57BL/6JJmsSlc, Japan SLC, Inc.) were used for evaluation. In the Tail Flick test, thermal stimulation was applied to the tail of each animal, and the latency (in seconds) of escape reflection moving the tail was measured. The maximum heat application time was set to 10 seconds in order to prevent burns.
The compounds described in the Examples were dissolved or suspended in Captisol to prepare test samples. Then, test samples at appropriately selected concentrations were administered subcutaneously to the animals (10 mL/kg), and the latency of escape reflection was measured. The latency of escape reflection before test sample administration was set as [pre-dose measurement], and the analgesic score (%) was calculated as [([measurement]−[pre-dose measurement])/(10−[pre-dose measurement])]×100.
The ED50 was determined by calculating a dose with an analgesic score of 50%.

[3] = Dissolution state in isopropyl myristate (IPM); type: physicochemical; conditions: concentration of 3.84 mmol/L
Description: as §1

Structure (SMILES) | Flux (skin permeation rate) [1] | ED50 [2] | Dissolution state in IPM [3]
CN(C)C[C@@H]1COCC[C@H]1c1cccc(O)c1 (racemic) [Example 1, 3-[(3R*,4R*)-3-(Dimethylaminomethyl)tetrahydropyran-4-yl]phenol] | 35.77 | 1.6 mg/kg | 
CN(C)C[C@@H]1COCC[C@H]1c1cccc(O)c1 (relative stereo) [Example 1, 3-[(3R*,4R*)-3-(Dimethylaminomethyl)tetrahydropyran-4-yl]phenol] |  |  | Dissolved
CN(C)C[C@@H]1CCCC[C@H]1c1cccc(O)c1 [Faxeladol] | 17.14 | 2.7 mg/kg | Suspended
